Data from EP4623928A1, “GLP-1R ANTAGONISTS FOR THE TREATMENT OF CANCER” (Fiorina, Paolo, priority 2024, dated 2025).

Columns and labels:
[1] = tested on: GLP-1R^pos and GLP-1R^neg CD3^+ T cells; assay: Seahorse bioenergetic analysis, GLP-1Rpos and GLP-1Rneg CD3+ T cells; assay type: cell-based, C57BL/6 mice; details: GLP-1R^pos CD3^+ T cells, Exe-4 (1 nM)
Procedure: Cellular Bioenergetics were analyzed using the Seahorse Extracellular Flux Analyzer Xfe96 (Agilent Technologies, Santa Clara, CA, United States), which simultaneously measures Oxygen Consumption Rate (OCR, pmolO2/min), ExtraCellular Acidification Rate (ECAR, mpH/min) and Proton Efflux Rate (PER, pmolH^+/min). For Seahorse experiments 150.000 cells either freshly isolated GLP-1R^pos or GLP-1R^neg CD3^+ T cells or activated with soluble anti-CD3/CD28 at 0.5 µg/ml each in the presence or not of Exe-4 (1 nM); in another setting untransduced mock CD3^+ T cells or pmY-GLP-1R CD3^+ T cells already activated with soluble anti-CD3/CD28 at 0.5 µg/ml each in the presence or not of Exe-4 (1 nM). Cells were resuspended in 50 µL assay medium (Agilent #103576-100 RPMI Medium pH7.4, supplemented with 10mM glucose, 2mM glutamine and 1mM Na-pyruvate) were seeded in each CellTak-precoated well of an Agilent Xfe96 Pro well plate. The cell plate was centrifuged 2 times at 40 × g (zero braking) for 1 minute. After centrifugation, 150 µL warm assay medium was gently added to each well. […]
Seahorse parameters were normalized to cell number in each well. To this purpose, at the end of the Seahorse analysis, cell nuclei were stained with Hoechst 33342 (1 µg/mL) for about 15 min, imaged and counted with Operetta CLS™ software Harmony, as previously described (43). […]

[2] = tested on: untransduced-mock and pmY-GLP-1R transduced CD3^+ T cells; assay: Proliferation, apoptosis and IFN-γ expression of untransduced-mock and pmY-GLP-1R transduced CD3+ T cells; assay type: cell-based, murine; details: Exe-4
Procedure: The mGLP-1R cDNA construct (Origene) was inserted into the pMY-IRES-GFP plasmid (Cell BioLabs, Inc., San Diego, CA). The Platinum-E Retroviral Packaging cell line was transfected with the pMY-IRES-GFP plasmid expressing GLP-1R using polybrene (Santa Cruz Biotechnology), and supernatant was collected. T cells were activated for 48 hours in the presence of soluble anti-CD3/CD28 at 0.5 µg/ml each in the presence of IL-2 (400 ng/ml) (R&D Systems), and viral supernatant was added. The upregulation of GLP-1R was assessed by FACS and western blot analysis.

effector T cells = assay: Effector T cell suppression by iTregs generated with Exe-4 (CTV dilution); assay type: cell-based; details: iTregs generated in the presence of Exe-4, ratio of 1: 4 to effector T cells, vs untreated-iTregs
[3] = tested on: untransduced-mock and pmY-GLP-1R transduced CD3^+ T cells; assay: Transwell migration assay toward SDF-1, mock and pmY-GLP-1R transduced CD3+ T cells; assay type: cell-based, murine; details: both untransduced-mock and pmY-GLP-1R transduced CD3^+ T cells, Exe-4 (1 nM)
Procedure: Transwell migration assays were performed on GLP-1R^pos and GLP-1R^neg CD3^+ cells or respectively untransduced-mock CD3^+ T cells or pmY-GLP-1R transduced CD3^+ T cells, freshly isolated or activated with anti-CD3/CD28 (0.5 µg /ml each) in the presence or not of Exe-4 (1 nM). Chemotaxis assessments via transwell migration assay were performed using polycarbonate membranes with 5 µm pores (Corning) in accordance with the manufacturer's instructions and as previously published (42). Cells were washed, re-suspended in migration media (RPMI), and added to the upper chamber of the plate, while migration media containing 0 or 50 ng/mL SDF-1 (R&D Systems) was added to the bottom chamber. Treated cells were incubated over night at 37°C to migrate through the polycarbonate membrane into the bottom chamber. Input cell counts were obtained by flow cytometry with a BD FACSCelesta (BD, Biosciences) as well as cell counts of migrated cells in the lower chambers. Migration percentage was calculated as the number of cells in the lower chamber (migrated) compared to total input cell count for three separate wells. Mean migration percentages and standard deviations (SD) were calculated across the different donor cell lots. Analysis of lower chambers without SDF-1 (negative gradients) was used to control for any nonspecific increase in chemotaxis.

[4] = tested on: mitogen-stimulated murine splenocytes; assay: IFN-γ ELISpot assay on anti-CD3/anti-CD28 stimulated splenocytes; assay type: cell-based, C57BL/6 mice; details: Exe-4 at 0.1, 1 or 10 nM, soluble anti-CD3 and anti-CD28, 24 hours
Procedure: An ELISPOT assay was used to measure the number of IFN-γ-producing cells according to the manufacturer's protocol (BD Biosciences) as previously performed by our group (39). To test the role of GLP-1R-driven immunity on the anti-CD3/28 non-autoimmune specific response, 1×10^6 splenocytes isolated from C57BL/6 mice were cultured in a microwell plate (BD Biosciences) coated with IFN-y capture antibody (Ab) in the presence of the following soluble anti-CD3 and anti-CD28 at 0,5ug/ml for 24 hours. Exe-4 and/or Exe-4+Exe-9-39 at concentrations of 0.1, 1 or 10 nM were added to the culture. After 24 hours, bound secondary Ab was visualized using HRP-streptavidin and the AEC substrate kit (BD Biosciences). Spots were counted using an Immunospot analyzer (Cellular Technology Ltd., Cleveland, OH) and expressed as the number of cytokine-producing spots per 1×10^6 cells. After 24hours, ELISpot plates were developed and acquired on an ELISpot reader, as previously described.

CD4^+ and CD8^+ T cells = assay: Cell death and proliferation of CD4+ and CD8+ T cells in splenocytes activated with anti-CD3/anti-CD28 (FACS); assay type: cell-based, C57BL/6 mice; details: anti-CD3/anti-CD28 activated splenocytes
[5] = both untransduced-mock and pmY-GLP-1R transduced CD3^+ T cells

Exendin-4 [Exe-4]
mitochondrial ATP production [1]: no effect
mitochondrial respiration (OCR values, maximal OXPHOS) [1]: slightly increased
IFN-γ expression [2, 5]: without any effect
proliferation [2, 5]: no effect
apoptosis ([2]; pmY-GLP-1R transduced CD3^+ T cells only): significantly increased
suppression of effector T cells by iTregs (effector T cells): significantly reduced suppression
migratory ability in response to SDF-1 [3]: reduced
number of IFN-y producing cells [4]: significantly reduced
cell death of CD4^+ and CD8^+ T cells (CD4^+ and CD8^+ T cells; Exe-4 alone (1 nM)): significant increase
proliferation of CD4^+ and CD8^+ T cells (CD4^+ and CD8^+ T cells; Exe-4 alone): no effect
